Source: article PMC11963559, “Identification of novel thiazole derivatives as flaviviral protease inhibitors effective against Dengue (DENV2) and Japanese encephalitis viruses” (Antimicrobial Agents and Chemotherapy, 2025)

Columns and labels:
[1] = MTT cytotoxicity assay in SH-SY5Y cells; format: cell-based; conditions: human
Procedure: We further studied the effect of the compounds on JEV replication in the human neuroblastoma SH-SY5Y cells, which represents a suitable model cell line for a neuropathic virus, like JEV. At first, the cytotoxicity was studied for both compounds in SH-SY5Y cells. […] Then, the SH-SY5Y cells were infected with the JEV virus in the absence or presence of 3aq or 3au (10 µM), and viral genomic RNA copies were quantified using qRT-PCR at 24, 48, and 72 hpi, as described previously.
The MTT assay was performed to determine cellular metabolic activity as an indicator of cell viability, proliferation, and cytotoxicity. Thus, to determine whether these compounds had any toxic effects on cellular viability, an MTT assay was performed following the protocol described previously by Mosmann (1983) ([55], [56]). Briefly, BHK-21 and SH-SHY5Y cells were seeded into 96-well plates at a density of 20,000 cells/well. Almost 16–18 h later, the cells were treated with different concentrations of the compounds (3au and 3aq) for 24 h at 37 °C in 5% CO2. […] The absorbance of the solution in a 96-well plate was measured at 595 nm using a microplate reader (Epoch 2; BioTek Instruments). Each experiment was performed in triplicate, and the percentage of cell viability was determined as the ratio of the absorbance values of the experimental samples to the control solvent (DMSO) on the same plate.

[2] = MTT cytotoxicity assay in BHK-21 cells; format: cell-based, hamster; conditions: hamster
Procedure: (§1) First, cytotoxic impact of these compounds was evaluated using MTT assay. […] Subsequently, we evaluated the effectiveness of these compounds in inhibiting DENV2 replication. BHK-21 cells were infected with the virus in presence of increasing concentration of these compounds, and harvested at 24 hpi. The virus replication rate was assessed by quantifying the copy number of viral genomic RNA using quantitative real-time PCR (qRT-PCR).
(§2) The MTT assay was performed to determine cellular metabolic activity as an indicator of cell viability, proliferation, and cytotoxicity. Thus, to determine whether these compounds had any toxic effects on cellular viability, an MTT assay was performed following the protocol described previously by Mosmann (1983) ([55], [56]). Briefly, BHK-21 and SH-SHY5Y cells were seeded into 96-well plates at a density of 20,000 cells/well. Almost 16–18 h later, the cells were treated with different concentrations of the compounds (3au and 3aq) for 24 h at 37 °C in 5% CO2. Thereafter, the medium was aspirated, and 100 µL of MTT reagent (5 mg/mL, SRL) in PBS was added to the cells and incubated for 3 h at 37 °C. Formazan crystals were formed in each well and resuspended in 100 µL of dimethyl sulfoxide (DMSO) (Sigma, USA) at room temperature for 20 min to completely dissolve the crystals. The absorbance of the solution in a 96-well plate was measured at 595 nm using a microplate reader (Epoch 2; BioTek Instruments). Each experiment was performed in triplicate, and the percentage of cell viability was determined as the ratio of the absorbance values of the experimental samples to the control solvent (DMSO) on the same plate.

[3] = test system: BHK-21 cells; test: MTT cytotoxicity assay in BHK-21 cells; format: cell-based, hamster; conditions: 24 h
Procedure: as §1, §2

[4] = test system: DENV2; test: DENV2 progeny virus titer in BHK-21 supernatant (TCID50 assay); format: cell-based; conditions: Dengue virus, DENV2, BHK-21, read-out: IC50 of viral titer reduction (called TCID50 in the source)
Procedure: To this end, we assessed the antiviral activity of shortlisted compounds by evaluating their ability to inhibit progeny virus production. BHK-21 cells were infected with DENV2 and JEV (MOI: 0.1) in the presence of different concentrations of 3aq or 3au or with DMSO, and viral titer was determined in the supernatants harvested at 18 hpi. Compound 3aq caused the maximum reduction of viral titer showing TCID50 of 5.18 ± 0.87 and 2.29 ± 0.50 µM against DENV2 and JEV, respectively (Fig. 8B and D).
During DENV2 and JEV infection, the viral supernatant was collected and used in the TCID50 assay to determine the viral titer. Then, 3 × 10^4 BHK-21 cells per well were seeded in a 96-well cell culture microtiter plate the day before titration. The virus stock was diluted with infection media (DMEM + 2% FBS) to attain virus dilutions of 1 × 10^−2 to 6.4 × 10^−7 in 12 parallels, with the last column of the 96-well plate serving as virus-free cell control. On the day of the assay, when the cell had reached 90%–95% confluency, the growth medium was aspirated using a multichannel pipette, and 100 µL of virus inoculum of different dilutions was transferred to each well, keeping the last well only in infection media without virus. The cells were then incubated at 37 °C in a humidified 5% CO2 chamber. […] TCID50 was calculated using the Spearman and Karber methods.

SMILES | CC50 at 24 h [1] | CC50 at 24 h [2] | non-toxic concentration [3] | IC50 [4]
COc1ccc(-c2csc(N/N=C(\C)c3ccc(O)cc3)n2)cc1 [3aq] | 58.3 ± 4.31 µM | 82 ± 2.38 µM | up to 25 µM | 5.18 ± 0.87 µM
COc1ccc(-c2csc(N/N=C(\C)c3cc(O)cc(O)c3)n2)cc1 [3au] | 49.4 ± 3.65 µM | 76.6 ± 2.74 µM | up to 25 µM | 7.58 ± 1.02 µM
